Columns and labels:
AMP kinase = assay: Phosphorylation of AMPK by β-lapachone in HepG2 cells; assay type: cell-based, Human; details: 10 μM, 30 min to 6 hr
Procedure: This example was carried out to confirm whether β-lapachone (Compound 1) has effects on phosphorylation of AMPK and ACC, which are intracellular energy-regulating proteins. In order to examine phosphorylation of AMP kinase and ACC (acetyl-CoA carboxylase) by β-lapachone, HepG2 cells (Human hepatocellular liver carcinoma cell line) were seeded onto a 6-well plate at a density of 1×10^5 cells per well, and cultured in a RPMI+10% FBS medium. After growing the cells for 24 hours, the culture medium was replaced with a serum-free RPMI medium, and cells were treated with β-lapachone (10 μM) for 30 min, 1 hr, 2 hr, 4 hr and 6 hr, respectively, in combination with a control (DMSO). Anti-ACC and Anti-pS79-ACC were used in order to observe phosphorylated ACC, whereas Anti-AMPK and Anti-pT172-AMPK were used in order to observe phosphorylated AMP kinase, respectively.

[1] = test system: mRNAs of PGC1α, NRF1, mtTFA, COX 4 and 7; assay: Gene expression of proteins involved in mitochondrial biogenesis in DIO mice; assay type: in vivo, C57BL/6 mice; details: 50 mg/kg daily oral, liver and gonadal adipose tissues, vs control group
Procedure: β-lapachone was administered daily to diet-induced obesity (DIO) mice at a dose of 50 mg/kg via an oral route, and levels of mRNAs of peroxisome proliferator-activated receptor coactivator alpha 1 (PGC1α) (23,24), nuclear respiratory factor 1 (NRF1) (25-27), mitochondrial transcription factor (mtTFA) (25-27), and cytochrome c oxidase (COX) 4 and 7 (28,29) in the liver and gonadal adipose tissues were confirmed by real-time quantitative PCR. Proteins shown in FIG. 10 are representative enzymes responsible for regulation of biogenesis of mitochondria which plays a critical role in biosynthesis of energy in cells, and are also known to be involved in regulation of various physiological events.

[2] = test system: mRNAs of PPAR alpha, PPAR gamma, AOX, AMPK alpha 1 and 2, CPT1; assay: Expression of genes involved in energy metabolism in DIO mice; assay type: in vivo, C57BL/6 mice; details: 50 mg/kg daily oral
Procedure: β-lapachone was administered daily to diet-induced obesity (DIO) mice at a dose of 50 mg/kg via an oral route, and levels of transcripts of genes involved in energy metabolism in the liver and gonadal adipose tissues were measured using real-time quantitative PCR. Referring to enzymes shown in FIG. 11, PPAR alpha and gamma are enzymes responsible for transcriptional regulation of enzymes involved in energy expenditure (30,31), AMPK plays a central role in the maintenance of cell energy homeostasis by sensing the intracellular AMP/ATP ratio, and AOX catalyzes to activate oxidative phosphorylation via oxidation of acyl CoA which resides in a certain step of a lipid metabolism process (32,33). In addition, CPT1 is also an enzyme involved in energy metabolism, and is well-known as an enzyme that enables the passage of long chain acyl CoA into mitochondria, not taking a route toward synthesis of triacylglycerol (34,35). […] Increased expression levels of such genes show the possibility that β-lapachone can be as therapeutic for the treatment of energy metabolism-related diseases.

DIO C57BL/6 mice = assay: Physical endurance (swimming test) in DIO C57BL/6 mice; assay type: in vivo; details: single administration, 3 hours later, vs control group
Procedure: This Example was intended to measure difference in physical endurance of mice through a swimming test. For this purpose, water was placed in a cylindrical trough having a diameter of 9.5 cm and height of 25 cm, and β-lapachone was administered to DIO C57BL/6 mice. 3 hours later, a sample-administered group and a control group were placed simultaneously into each cylindrical trough for measurement, and physical endurance of each group was compared.

Sprague-Dawley rats [3] = assay: Acute toxicity test, oral administration; assay type: in vivo; details: oral, 50, 100 and 200 mg/kg, observed for 2 weeks
Sprague-Dawley rats [4] = assay: Acute toxicity test, peritoneal administration; assay type: in vivo; details: peritoneal, 50, 100 and 200 mg/kg, observed for 2 weeks
[5] = liver and gonadal adipose tissues

For CC1(C)CCC2=C(O1)c1ccccc1C(=O)C2=O [Compound 1, β-Lapachone], which “phosphorylation of AMP kinase (Anti-pT172-AMPK), onset” value (AMP kinase) is on record?
Its value is “could be observed from the initial time (30 min)”.

What about the “phosphorylation of AMP kinase, duration of effect” value (AMP kinase) of the same compound?
Its value is “lasted up to 6 hours”.

What about the “COX 4 mRNA level” value [1] of the same compound?
Its value is “increased levels of mRNAs”.

And the “COX 7 mRNA level” value [1]?
The value was “increased levels of mRNAs”.

What about the “NRF1 mRNA level” value [1] of the same compound?
The value was “increased levels of mRNAs”.

And the “PGC1α mRNA level” value [1]?
The value was “increased levels of mRNAs”.

And the “mtTFA mRNA level” value [1]?
The value was “increased levels of mRNAs”.

And the “PPAR alpha mRNA level” value [2, 5]?
Its value is “not changed”.

And the “PPAR gamma mRNA level” value [2, 5]?
Its value is “about two-fold increases”.

And the “AMPK alpha 1 mRNA level” value ([2]; vs control group)?
Its value is “increased levels in mRNAs”.

And the “AMPK alpha 2 mRNA level” value ([2]; vs control group)?
The value was “increased levels in mRNAs”.

What about the “acyl CoA oxidase (AOX) mRNA level” value ([2]; vs control group) of the same compound?
The value was “increased levels in mRNAs”.

And the “carnitine palmitoyltransferase 1 mRNA level” value ([2]; vs control group)?
Its value is “increased levels in mRNAs”.

What about the swimming duration (DIO C57BL/6 mice) of the same compound?
The swimming duration was “more than two-fold swimming duration”.

What about the mortality (Sprague-Dawley rats [3]) of the same compound?
Its mortality is “none of the animals died”.

And the mortality (Sprague-Dawley rats [4])?
Its mortality is “none of the animals died”.
